In patent publication US12398355B2, “Micro physiological model for neuronal and muscular diseases and disorders” (Massachusetts Institute of Technology, priority 2019, dated 2025):

Columns and labels:
[1] = tested on: in vitro co-culture; assay: Side effects of high drug concentrations in in vitro co-culture; type: cell-based; conditions: in vitro co-culture condition
[2] = tested on: ALS motor unit (iALS-MN spheroid and iPSC-derived skeletal muscle fiber bundle); assay: Drug treatment of ALS motor unit model, muscle contraction by optical stimulation; type: cell-based, human; conditions: 1-Hz optical stimulation, n=180; untreated ALS ~32.3%
Description: Epifluorescence and confocal images were acquired using a Zeiss Axiovert 200 microscope and an Olympus FV-1000 confocal microscope, respectively. 3D reconstruction and analysis of confocal images were performed with IMARIS software (Bitplane). Muscle contraction measurement was performed in a stage-top incubator (INUBG2TF-WSKM-SET, Tokai Hit) on Axiovert 200, and image sequences were captured using AxioVision. Automated tracking of the local deformation of the skeletal muscle cells and deflection of the pillars upon light excitation were carried out using ImageJ and Python script with an OpenCV package. Formulas for calculating muscle contraction force from pillar displacements include:
To avoid single-cell attachment to the glass bottom, the microfluidic device was incubated with 4% Pluronic F-127 (Sigma) in the incubator for 1 hour, rinsed with distilled water, and dried. […]
hESC-derived NSCs and iPSC-derived NSCs from a patient with sporadic ALS were infected with an AAV-CAG-ChR2H134R-tdTomato-WPRE plasmid to express a mutated variant of the light-sensitive ion channel, channelrhodopsin-2H134R. […] The cells were cultured for 4 days, expanded for another 3 days, and sorted by fluorescence-activated cell sorting (BD Biosciences, FACSAria II) with strong expression of tdTomato. […]

[3] = tested on: 3D motor unit model (MN spheroid and skeletal muscle fiber bundle)
[4] = tested on: 3D motor unit model (hESC-derived MN spheroid and iPSC-derived skeletal muscle fiber bundle with NMJ); type: cell-based, human

For CO[C@H]1C[C@@H]2CC[C@@H](C)[C@@](O)(O2)C(=O)C(=O)N2CCCC[C@H]2C(=O)O[C@H]([C@H](C)C[C@@H]2CC[C@@H](O)[C@H](OC)C2)CC(=O)[C@H](C)/C=C(\C)[C@@H](O)[C@@H](OC)C(=O)[C@H](C)C[C@H](C)/C=C/C=C/C=C/1C [rapamycin], the “concentration that can cause side effects” value [1] was “over 1 uM” and the “missed muscle contractions after light stimulation” value [2] was roughly 16.1%.
With N[C@@H](CCC(=O)O)C(=O)O [glutamic acid] the average contraction force [3] was roughly 0.5 pN, the “average frequency of muscle contractions” value [3] was 0.7 Hz and the “morphology after prolonged treatment” value [3] was “neurite regression and muscle atrophy”. For the same compound, the “muscle contraction after prolonged treatment” value [3] was “no muscle contraction was observed”, the muscle contraction force [3] was “relatively decreased” and the muscle contraction frequency [3] was “dropped”. The “muscle contraction with chemical stimulation” value [3] was “significant loss of function”, the “muscle contraction with electrical stimulation” value [3] was “no significant difference” and the “neurotoxic effect / myotoxicity” value [3] was “mainly caused a neurotoxic effect but no observable myotoxicity”.
In the case of COc1cc(Nc2c(C#N)cnc3cc(OCCCN4CCN(C)CC4)c(OC)cc23)c(Cl)cc1Cl [bosutinib], the “concentration that can cause side effects” value [1] is reported as “over 800 uM”.
In the case of α-bungarotoxin [αBTX], the “muscle contraction in the presence of αBTX” value [4] is reported as “completely inhibited”.
NC1=N[C@H](O)[C@H]2[C@H]3O[C@]4(O)O[C@@H]([C@@H](O)[C@@]2(N1)[C@@H]4O)[C@]3(O)CO [TTX, tetrodotoxin] was tested, and the “muscle contraction after rinsing away the TTX” value [4] was “partially recovered” and the “muscle contraction under TTX” value [4] was “completely prevented muscle contraction”.
